First: C[C@@]12OC(=O)O[C@@H]1[C@@H](CO[P@@]1(=O)OCC[C@@H](c3cccc(Cl)c3)O1)O[C@H]2n1cnc2c(OCC3CC4CCC3C4)nc(N)nc21 (stereo partly drawn) [Compound 139, 2(R)-(2-Amino-6-(2-bicyclo[2.2.1]heptanylmethoxy)-9(H)-purinyl)-4(R)-(4(S)-(3-chlorophenyl)-2-oxo-1,3,2-dioxaphosphorinan-2(R)-yloxymethyl)-1(R)-methyl-7-oxo-3,6,8-trioxa-cis-bicyclo[3.3.0]octane]
Second: CC1CC1COc1nc(N)nc2c1ncn2[C@@H]1O[C@H](CO[P@@]2(=O)OCC[C@@H](c3cccc(Cl)c3)O2)[C@H]2OC(=O)O[C@]21C (stereo partly drawn) [Compound 135, 2(R)-(2-Amino-6-(2-methylcyclopropylmethoxy)-9(H)-purinyl)-4(R)-(4(S)-(3-chlorophenyl)-2-oxo-1,3,2-dioxaphosphorinan-2(R)-yloxymethyl)-1(R)-methyl-7-oxo-3,6,8-trioxa-cis-bicyclo[3.3.0]octane]
The melting point of the first is higher: 99 to 101 °C for the first, 88 to 90 °C for the second.

First: C[C@@]12OC(=O)O[C@@H]1[C@@H](CO[P@@]1(=O)OCC[C@@H](c3cccc(C#N)c3)O1)O[C@H]2n1cnc2c(O)nc(N)nc21 [Compound 109, 2(R)-(2-Amino-6-hydroxy-9 (H)-purinyl)-4(R)-(4(S)-(3-cyanophenyl)-2-oxo-1,3,2-dioxaphosphorinan-2(R)-yloxymethyl)-1(R)-methyl-7-oxo-3,6,8-trioxa-cis-bicyclo[3.3.0]octane]
Second: C[C@@]12OC(=O)O[C@@H]1[C@@H](CO[P@@]1(=O)OCC[C@@H](c3cc(F)cc(F)c3)O1)O[C@H]2n1cnc2c(O)nc(N)nc21 [Compound 101, 2(R)-(2-Amino-6-hydroxy-9(H)-purinyl)-4(R)-(4(S)-(3,5-difluorophenyl)-2-oxo-1,3,2-dioxaphosphorinan-2-(R)-yloxymethyl)-1(R)-methyl-7-oxo-3,6,8-trioxa-cis-bicyclo[3.3.0]octane]
The melting point of the first is lower: 218 to 220 °C for the first, 234 to 236 °C for the second.

First: CCOc1nc(N)nc2c1ncn2[C@@H]1O[C@H](CO[P@@]2(=O)OCC[C@@H](c3cccc(Br)c3)O2)[C@H]2OC(=O)O[C@]21C [Compound 123, 2(R)-(2-Amino-6-ethoxy-9(H)-purinyl)-4(R)-(4(S)-(3-bromophenyl)-2-oxo-1,3,2-dioxaphosphorinan-2(R)-yloxymethyl)-1(R)-methyl-7-oxo-3,6,8-trioxa-cis-bicyclo[3.3.0]octane]
Second: CCOc1nc(N)nc2c1ncn2[C@@H]1O[C@H](CO[P@@]2(=O)OCC[C@@H](c3cccc(F)c3)O2)[C@H]2OC(=O)O[C@]21C [Compound 124, 2(R)-(2-Amino-6-ethoxy-9(H)-purinyl)-4(R)-(4(S)-(3-fluorophenyl)-2-oxo-1,3,2-dioxaphosphorinan-2(R)-yloxymethyl)-1(R)-methyl-7-oxo-3,6,8-trioxa-cis-bicyclo[3.3.0]octane]
The melting point of the first is lower: 77 to 80 °C for the first, 88 to 90 °C for the second.

First: C[C@@]12OC(=O)O[C@@H]1[C@@H](CO[P@@]1(=O)OCC[C@@H](c3cccc(Cl)c3)O1)O[C@H]2n1cnc2c(OCC3CC3)nc(N)nc21 [Compound 121, 2(R)-(2-Amino-6-cyclopropylmethoxy-9(H)-purinyl)-4(R)-(4(S)-(3-chlorophenyl)-2-oxo-1,3,2-dioxaphosphorinan-2(R)-yloxymethyl)-1(R)-methyl-7-oxo-3,6,8-trioxa-cis-bicyclo[3.3.0]octane]
Second: C[C@@]12OC(=O)O[C@@H]1[C@@H](CO[P@@]1(=O)OCC[C@@H](c3cccc(Cl)c3)O1)O[C@H]2n1cnc2c(OCC3CCCCC3)nc(N)nc21 [Compound 146, 2(R)-(2-Amino-6-cyclohexylmethoxy-9(H)-purinyl)-4(R)-(4(S)-(3-chlorophenyl)-2-oxo-1,3,2-dioxaphosphorinan-2(R)-yloxymethyl)-1(R)-methyl-7-oxo-3,6,8-trioxa-cis-bicyclo[3.3.0]octane]
The melting point of the first is higher: 128 to 132 °C for the first, 101 to 103 °C for the second.

Compared with `CSCCCOc1nc(N)nc2c1ncn2[C@@H]1O[C@H](CO[P@@]2(=O)OCC[C@@H](c3cccc(Cl)c3)O2)[C@H]2OC(=O)O[C@]21C` [Compound 130, 2(R)-(2-Amino-6-(3-methylthiopropyloxy)-9(H)-purinyl)-4(R)-(4(S)-(3-chlorophenyl)-2-oxo-1,3,2-dioxaphosphorinan-2(R)-yloxymethyl)-1(R)-methyl-7-oxo-3,6,8-trioxa-cis-bicyclo[3.3.0]octane], `CCOc1nc(N)nc2c1ncn2[C@@H]1O[C@H](CO[P@@]2(=O)OCC[C@@H](c3cccc(Cl)c3)O2)[C@H]2OC(=O)O[C@]21C` [Compound 120, 2(R)-(2-Amino-6-ethoxy-9(H)-purinyl)-4(R)-(4(S)-(3-chlorophenyl)-2-oxo-1,3,2-dioxaphosphorinan-2(R)-yloxymethyl)-1(R)-methyl-7-oxo-3,6,8-trioxa-cis-bicyclo[3.3.0]octane] is higher in melting point: 79 to 82 °C for the first, 82 to 84 °C for the second.

`CCOc1nc(N)nc2c1ncn2[C@@H]1O[C@H](CO[P@@]2(=O)OCC[C@@H](c3cc(Cl)cc(Cl)c3)O2)[C@H]2OC(=O)O[C@]21C` [Compound 127, 2(R)-(2-Amino-6-ethoxy-9(H)-purinyl)-4(R)-(4(S)-(3,5-dichlorophenyl)-2-oxo-1,3,2-dioxaphosphorinan-2(R)-yloxymethyl)-1(R)-methyl-7-oxo-3,6,8-trioxa-cis-bicyclo[3.3.0]octane] and `CCOc1nc(N)nc2c1ncn2[C@@H]1O[C@H](CO[P@]2(=O)OCC[C@H](c3cc(Cl)cc(Cl)c3)O2)[C@H]2OC(=O)O[C@]21C` [Compound 128, 2(R)-(2-Amino-6-ethoxy-9(H)-purinyl)-4(R)-(4(R)-(3,5-dichlorophenyl)-2-oxo-1,3,2-dioxaphosphorinan-2(S)-yloxymethyl)-1(R)-methyl-7-oxo-3,6,8-trioxa-cis-bicyclo[3.3.0]octane] fall in the same range of melting point: 101 to 103 °C for the first, 101 to 103 °C for the second.

First: CCOc1nc(N)nc2c1ncn2[C@@H]1O[C@H](CO[P@@]2(=O)OCC[C@@H](c3ccccc3)O2)[C@H]2OC(=O)O[C@]21C [Compound 182, 2(R)-(2-Amino-6-ethoxy-9(H)-purinyl)-4(R)-(4(S)-phenyl-2-oxo-1,3,2-dioxaphosphorinan-2(R)-yloxymethyl)-1(R)-methyl-7-oxo-3,6,8-trioxa-cis-bicyclo[3.3.0]octane]
Second: CCOc1nc(N)nc2c1ncn2[C@@H]1O[C@H](CO[P@@]2(=O)OCC[C@@H](c3cc(F)cc(F)c3)O2)[C@H]2OC(=O)O[C@]21C [Compound 126, 2(R)-(2-Amino-6-ethoxy-9(H)-purinyl)-4(R)-(4(S)-(3,5-difluorophenyl)-2-oxo-1,3,2-dioxaphosphorinan-2(R)-yloxymethyl)-1(R)-methyl-7-oxo-3,6,8-trioxa-cis-bicyclo[3.3.0]octane]
The melting point of the first is higher: 105 to 107 °C for the first, 96 to 98 °C for the second.

Compared with `CCOC(COc1nc(N)nc2c1ncn2[C@@H]1O[C@H](CO[P@@]2(=O)OCC[C@@H](c3cccc(Cl)c3)O2)[C@H]2OC(=O)O[C@]21C)OCC` [Compound 149, 2(R)-(2-Amino-6-(2,2-diethoxyethoxy)-9(H)-purinyl)-4(R)-(4(S)-(3-chlorophenyl)-2-oxo-1,3,2-dioxaphosphorinan-2(R)-yloxymethyl)-1(R)-methyl-7-oxo-3,6,8-trioxa-cis-bicyclo[3.3.0]octane], `CC(C)Oc1nc(N)nc2c1ncn2[C@@H]1O[C@H](CO[P@@]2(=O)OCC[C@@H](c3cccc(Cl)c3)O2)[C@H]2OC(=O)O[C@]21C` [Compound 151, 2(R)-(2-Amino-6-isopropyloxy-9(H)-purinyl)-4(R)-(4(S)-(3-chlorophenyl)-2-oxo-1,3,2-dioxaphosphorinan-2(R)-yloxymethyl)-1(R)-methyl-7-oxo-3,6,8-trioxa-cis-bicyclo[3.3.0]octane] is higher in melting point: 72 to 75 °C for the first, 106 to 110 °C for the second.

First: CC(C)(C)COc1nc(N)nc2c1ncn2[C@@H]1O[C@H](CO[P@@]2(=O)OCC[C@@H](c3cccc(Cl)c3)O2)[C@H]2OC(=O)O[C@]21C [Compound 147, 2(R)-(2-Amino-6-(2,2-dimethylpropyloxy)-9(H)-purinyl)-4(R)-(4(S)-(3-chlorophenyl)-2-oxo-1,3,2-dioxaphosphorinan-2(R)-yloxymethyl)-1(R)-methyl-7-oxo-3,6,8-trioxa-cis-bicyclo[3.3.0]octane]
Second: COC(C)(C)CCOc1nc(N)nc2c1ncn2[C@@H]1O[C@H](CO[P@@]2(=O)OCC[C@@H](c3cccc(Cl)c3)O2)[C@H]2OC(=O)O[C@]21C [Compound 138, 2(R)-(2-Amino-6-(3-methyl-3-methoxybutyloxy)-9 (H)-purinyl)-4(R)-(4(S)-(3-chlorophenyl)-2-oxo-1,3,2-dioxaphosphorinan-2(R)-yloxymethyl)-1(R)-methyl-7-oxo-3,6,8-trioxa-cis-bicyclo[3.3.0]octane]
The melting point of the first is lower: 88 to 91 °C for the first, 93 to 96 °C for the second.

First: C[C@@]12OC(=O)O[C@@H]1[C@@H](CO[P@@]1(=O)OCC[C@@H](c3cccc(Cl)c3)O1)O[C@H]2n1cnc2c(OC3CCCC3)nc(N)nc21 [Compound 125, 2(R)-(2-Amino-6-cyclopentyloxy-9(H)-purinyl)-4(R)-(4(S)-(3-chlorophenyl)-2-oxo-1,3,2-dioxaphosphorinan-2(R)-yloxymethyl)-1(R)-methyl-7-oxo-3,6,8-trioxa-cis-bicyclo[3.3.0]octane]
Second: C[C@@]12OC(=O)O[C@@H]1[C@@H](CO[P@@]1(=O)OCC[C@@H](c3cccc(Cl)c3)O1)O[C@H]2n1cnc2c(OCCC3CCCCC3)nc(N)nc21 [Compound 131, 2(R)-(2-Amino-6-(2-cyclohexylethoxy)-9(H)-purinyl)-4(R)-(4(S)-(3-chlorophenyl)-2-oxo-1,3,2-dioxaphosphorinan-2(R)-yloxymethyl)-1(R)-methyl-7-oxo-3,6,8-trioxa-cis-bicyclo[3.3.0]octane]
The melting point of the first is higher: 107 to 109 °C for the first, 93 to 95 °C for the second.

Compound `CC(C)C(=O)O[C@@H]1[C@@H](CO[P@@]2(=O)OCC[C@@H](c3cccc(Cl)c3)O2)O[C@@H](n2cnc3c(O)nc(N)nc32)[C@]1(C)O` [Compound 117, 2(R)-(2-Amino-6-hydroxy-9(H)-purinyl)-5(R)-(4(S)-(3-chlorophenyl)-2-oxo-1,3,2-dioxaphosphorinan-2(R)-yloxymethyl)-3(R)-hydroxy-3(R)-methyl-4(R)-(2-methyl-1-oxopropoxy)-tetrahydrofuran] has a melting point greater than 200 °C.

From patent US20140356325A1, “NOVEL 2'-C-METHYL NUCLEOSIDE DERIVATIVE COMPOUNDS” (Ligand Pharmaceuticals Incorporated, priority 2012, published 2014)
